Results: patent EP4800018A1, “PAN-KRAS INHIBITOR AND USE THEREOF IN MEDICINES” (Betta Pharmaceuticals Co., Ltd., priority 2023, dated 2025)

What was measured:
Type in all cases: cell-based
KRAS G12D-cRAF = target: T1, KRAS G12D-cRAF (Homo sapiens, UniProt P01116, G12D); assay: Cellular KRAS G12D-cRAF Binding Inhibition Assay (NanoBRET, AD293 stable cells); conditions: 3 h incubation, read-out: NanoBRET KRAS G12D
T1 construct: expressed in transfected cells
Procedure: (§1) NanoLuc® luciferase was used as the energy donor, and NanoBRET™ 618 fluorescent ligand labeled with the HaloTag® protein was used as the energy acceptor to detect protein-protein interactions in living cells. AD293 stable cells transfected with KRAS G12D-NanoLuc® luciferase and cRAF RBD-HaloTag® tag protein were seeded in 96-well plates at a cell density of 1×10^4 cells/well. Except for wells with medium added as a blank control, NanoBRET™ 618 fluorescent ligand was added to all other wells, and the plates were cultured overnight in a cell culture incubator. […] The luminescence data were calculated and converted into inhibition percent. The inhibition percent of KRAS G12D-cRAF binding was calculated according to the following formula: Inhibition Percent = (MaxValue−MeasuredValue)/(MaxValue−Blank) × 100% [formula] […] Curve fitting was performed using GraphPad Prism software to obtain IC50 values, see Table 1.

[1] = tested on: KRAS-G12V mutant tumor cells SW620; assay: Cell Proliferation Inhibition Assay (SW620), Cell-titer GLO, 96 h; conditions: Homo sapiens, SW-620, 96 h, SW620 cells, 96 h incubation, Cell-titer GLO; read-out: SW620(G12V)
Procedure: (§2) KRAS-G12V mutant tumor cells SW620 were seeded in low-attachment 96-well plates at a cell density of 1×10^3 cells/well and cultured overnight in a cell culture incubator. After the cells adhered, the test compounds were added to the 96-well plates at final concentrations of 10000, 2000, 400, 80, 16, 3.2, 0.64, 0.13, 0.03, 0 nM (final concentration of DMSO was 0.5% for all). After incubation at 37°C for 96 h, 50 µL of Cell-titer GLO working solution was added to each well, mixed by shaking, incubated at room temperature for 10 min, and the Luminescence value was read on a multi-function microplate reader. The luminescence data were calculated and converted into inhibition percent. The inhibition percent of cell proliferation was calculated according to the following formula: Inhibition Percent = (MaxValue−MeasuredValue)/(MaxValue−Blank) × 100% [formula]
("Max Value" comes from the 0.5% DMSO control well, "Blank" comes from the blank control well, and "Measured Value" comes from the compound-treated well).
Curve fitting was performed using GraphPad Prism software to obtain IC50 values, see Table 1.

KRAS G12V-cRAF = target: T2, KRAS G12V-cRAF (Homo sapiens, UniProt P01116, G12V); assay: Cellular KRAS G12V-cRAF Binding Inhibition Assay (NanoBRET, AD293 stable cells); conditions: 3 h incubation, read-out: NanoBRET KRAS G12V
T2 construct: expressed in transfected cells
T2 sequence (P01116 1-188 isoform P01116-2 G12V): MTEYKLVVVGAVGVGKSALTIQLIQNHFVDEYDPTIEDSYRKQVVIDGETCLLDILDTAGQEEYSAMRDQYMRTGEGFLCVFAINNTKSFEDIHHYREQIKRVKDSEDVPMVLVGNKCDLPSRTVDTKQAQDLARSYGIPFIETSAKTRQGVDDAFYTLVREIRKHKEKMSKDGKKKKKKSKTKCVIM
Procedure: as §1, with “AD293 stable cells transfected with KRAS G12D-NanoLuc® luciferase and cRAF RBD-HaloTag® tag protein were seeded in 96-well plates at a cell density of 1×10^4 cells/well.” left out, “G12V-cRAF” for “G12D-cRAF”

[2] = tested on: KRAS-G12D mutant tumor cells AGS; assay: Cell Proliferation Inhibition Assay (AGS), Cell-titer GLO, 96 h; conditions: Homo sapiens, AGS, 96 h, AGS cells, 96 h incubation, Cell-titer GLO; read-out: AGS(G12D)
Procedure: as §2, with “KRAS-G12D” for “KRAS-G12V”, “AGS” for “SW620”, “After the cells adhered, the test compounds were added to the 96-well plates at final concentrations of 10000, 2000, 400, 80, 16, 3.2, 0.64, 0.13, 0.03, 0 nM (final concentration of DMSO was 0.5% for all).” left out, “[formula] […] Curve fitting was performed using GraphPad Prism software to obtain IC50 values, see Table 1.” for “[formula]”

T1 sequence (P01116 1-188 isoform P01116-2 G12D): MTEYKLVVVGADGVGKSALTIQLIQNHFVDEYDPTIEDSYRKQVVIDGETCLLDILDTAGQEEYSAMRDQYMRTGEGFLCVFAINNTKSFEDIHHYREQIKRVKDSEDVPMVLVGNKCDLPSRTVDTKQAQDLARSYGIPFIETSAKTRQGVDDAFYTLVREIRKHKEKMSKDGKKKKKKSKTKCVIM

Row | SMILES | IC50 (KRAS G12D-cRAF) | IC50 [1] | IC50 (KRAS G12V-cRAF) | IC50 [2]
1 | CC1OCCCn2c(c3c4cc(ccc42)-c2csc(n2)CC(NC(=O)C24CC(C)(C2)C4)C(=O)N2CCCC(N2)C(=O)OCC(C)(C)C3)-c2cc(N3CCN(CC(F)(F)F)CC3)cnc21 [Example 39, 3-methyl-N-((1^5S,6^3S,4S,Z)-1^5,10,10-trimethyl-5,7-dioxo-1^2-(4-(2,2,2-trifluoroethyl)piperazin-1-yl)-1^8,1^9,6^1,6^2,6^3,6^4,6^5,6^6-octahydro-1^5H,1^7H-8-oxa-1(13,15)-pyrido[3',2':7,8][1,5]oxazonino[5,6-a]indola-2(4,2)-thiazola-6(1,3)-pyridazinacycloundecaphane-4-yl)bicyclo[1.1.1]pentane-1-carbo xamide] | 22.1 nM | 8.17 nM | 86.4 nM | 33.7 nM
2 | CC1OCCCn2c(c3c4cc(ccc42)-c2csc(n2)CC(NC(=O)C24CC(C)(C2)C4)C(=O)N2CCCC(N2)C(=O)OCC(C)(C)C3)-c2cc(N3CCN(C4CC4)CC3)cnc21 [Example 40, N-((1^5S,6^3S,4S,Z)-1^2-(4-cyclopropylpiperazin-1-yl)-1^5,10,10-trimethyl-5,7-dioxo-1^8,1^9,6^1,6^2,6^3,6 ^4,6^5,6^6-octahydro-1^5H,1^7H-8-oxa-1(13,15)-pyrido[3',2':7,8][1,5]oxazonino[5,6-a]indola-2(4,2)-thiazola-6(1,3)-pyridazinacycloundecaphane-4-yl)-3-methylbicyclo[1.1.1]pentane-1-carboxamide] | 15.8 nM | 4.29 nM | 61.1 nM | 22.4 nM
3 | CC1OCCCn2c(c3c4cc(ccc42)-c2csc(n2)CC(NC(=O)C24CC(C)(C2)C4)C(=O)N2CCCC(N2)C(=O)OCC(C)(C)C3)-c2cc(N3CCN(C)CC3)cnc21 [Example 80, 3-methyl-N-((1^53 ^3S,4S,Z)-1^5,10,10-trimethyl-1^2-(4-methylpiperazin-1-yl)-5,7-dioxo-1^8,1^9,6^1,6^2 ,6^3,6^4,6^5,^6-octahydro-1^5H,1^7H-8-oxa-1(13,15)-pyrido[3',2':7,8][1,5]oxazonino[5,6-a]indola-2(4, 2)-thiazola-6(1,3)-pyridazinacycloundecaphane-4-yl)bicyclo[1.1.1]pentane-1-carboxamide] | 5.7 nM | 0.3 nM | 21.3 nM | 1.76 nM
4 | CC1OCCCn2c(c3c4cc(ccc42)-c2csc(n2)CC(NC(=O)C2CC2C(F)F)C(=O)N2CCCC(N2)C(=O)OCC(C)(C)C3)-c2cc(N3CCN(C)CC3)cnc21 [Example 81, (1S,2S)-2-(difluoromethyl)-N-((1^5S,6^3S,4S,Z)-1^5,10,10-trimethyl-1^2-(4-methylpiperazin-1-yl)-5,7-dioxo-1^8,1^9,6^1,6^2,6^3,6^4,6^5,6^6-octahydro-1^5H,1^7H-8-oxa-1(13,15)-pyrido[3',2':7,8][1,5]oxazonino[5,6-a]indola-2(4,2)-thiazola-6(1,3)-pyridazinacycloundecaphane-4-yl)cyclopropane-1-carboxamide] | 3.14 nM | 0.11 nM | 9.6 nM | 0.79 nM
5 | CC1OCCCn2c(c3c4cc(ccc42)-c2csc(n2)CC(NC(=O)C2CC2C(F)F)C(=O)N2CCCC(N2)C(=O)OCC(C)(C)C3)-c2cc(N3CCOCC3)cnc21 [Example 83, (1S,2S)-2-(difluoromethyl)-N-((1^5S,6^3S,4S,Z)-1^5,10,10-trimethyl-1^2-morpholino-5,7-dioxo-1^8,1^9, 6^1,6^2,6^3,6^4,6^56-octahydro-1^5H,1^7H-8-oxa-1(13,15)-pyrido[3',2':7,8][1,5]oxazonino[5,6-a]indola-2(4,2)-thiazola-6(1,3)-pyridazinacycloundecaphane-4-yl)cyclopropane-1-carboxamide] | 2.88 nM | 0.33 nM | 11.9 nM | 2.04 nM
6 | CCN1CCN(c2cnc3c(c2)-c2c4c5cc(ccc5n2CCCOC3C)-c2csc(n2)CC(NC(=O)C2CC2C(F)F)C(=O)N2CCCC(N2)C(=O)OCC(C)(C)C4)CC1 [Example 84, (1S,2S)-2-(difluoromethyl)-N-((1^5S,6^3S,4S,Z)-1^2-(4-ethylpiperazin-1-yl)-1^5,10,10-trimethyl-5,7-dioxo-1^8,1^9,6^1,6^2,6^3,6^4,6^5,6^6-octahydro-1^5H,1^7H-8-oxa-1(13,15)-pyrido[3',2':7,8][1,5]oxazonino[5,6-a]indola-2(4,2)-thiazola-6(1,3)-pyridazinacycloundecaphane-4-yl)cyclopropane-1-carboxamide] | 2.76 nM | 0.19 nM | 9.17 nM | 1.15 nM
7 | CC1OCCCn2c(c3c4cc(ccc42)-c2csc(n2)CC(NC(=O)C2CC2C(F)F)C(=O)N2CCCC(N2)C(=O)OCC(C)(C)C3)-c2cc(N3CCN(C4CC4)CC3)cnc21 [Example 85, (1S,2S)-N-((1^5S,6^3S,4S,Z)-1^2-(4-cyclopropylpiperazin-1-yl)-15,10,10-trimethyl-5,7-dioxo-1^8,1^9,6 ,6^2,6^3,6^4,6^5,6^6-octahydro-1^5H,1^7H-8-oxa-1(13,15)-pyrido[3',2':7,8][1,5]oxazonino[5,6-a]indola-2(4,2)-thiazola-6(1,3)-pyridazinacycloundecaphane-4-yl)-2-(difluoromethyl)cyclopropane-1-car boxamide] | 5.56 nM | 0.63 nM | 19.9 nM | 3.72 nM
8 | CC1OCCCn2c(c3c4cc(ccc42)-c2csc(n2)CC(NC(=O)C2CC2C(F)F)C(=O)N2CCCC(N2)C(=O)OCC(C)(C)C3)-c2cc(N3CCN(C(C)C)CC3)cnc21 [Example 86, (1S,2S)-2-(difluoromethyl)-N-((1^5S,6^3S,4S,Z)-1^2-(4-isopropylpiperazin-1-yl)-1^5,10,10-trimethyl-5,7-dioxo-1^8,1^9,6^1,6^2,6^3,6^4,6^5,6^6-octahydro-1^5H,1^7H-8-oxa-1(13,15)-pyrido[3',2':7,8][1,5]oxazonino[5,6-a]indola-2(4,2)-thiazola-6(1,3)-pyridazinacycloundecaphane-4-yl)cyclopropane-1-carbox amide] | 2.19 nM | 0.17 nM | 11 nM | 1.19 nM
9 | CC1OCCCn2c(c3c4cc(ccc42)-c2csc(n2)CC(NC(=O)C2CC2C(F)F)C(=O)N2CCCC(N2)C(=O)OCC(C)(C)C3)-c2cc(N(C)CCN(C)C)cnc21 [Example 87, (1S,2S)-2-(difluoromethyl)-N-((1^5S,6^3S,4S,Z)-1^2-((2-(dimethylamino)ethyl)(methyl)amino)-1^5,1 0,10-trimethyl-5,7-dioxo-1^8,1^9,6^1,6^2,6^3,6^4,6^5,6^6-octahydro-1^5H,1^7H-8-oxa-l(13,15)-pyrido[3',2':7 ,8][1,5]oxazonino[5,6-a]indola-2(4,2)-thiazola-6(1,3)-pyridazinacycloundecaphane-4-yl)cyclopr opane-1-carboxamide] | 38.8 nM | 2.75 nM | 184 nM | 8.3 nM
10 | [2H]C([2H])([2H])N1CCN(c2cnc3c(c2)-c2c4c5cc(ccc5n2CCCOC3C)-c2csc(n2)CC(NC(=O)C2CC2C(F)F)C(=O)N2CCCC(N2)C(=O)OCC(C)(C)C4)CC1 [Example 91, (1S,2S)-2-(difluoromethyl)-N-((1^5S,6^3S,4S,Z)-1^5,10,10-trimethyl-1^2-(4-(methyl-d3)piperazin-1-yl)-5,7-dioxo-1^8,1^9,6^1,6^2,6^3,6^4,6^5,6^6-octahydro-1^5H,1^7H-8-oxa-1(13,15)-pyrido[3',2':7,8][1,5]oxazonino[5,6-a]indola-2(4,2)-thiazola-6(1,3)-pyridazinacycloundecaphane-4-yl)cyclopropane-1-carb oxamide] | 2.7 nM | 0.21 nM | 10.3 nM | 1.51 nM
